From patent US20150250864A1, “ANTI-CANCER VACCINES” (Board of Regents, The University of Texas System, priority 2012, published 2015)

Key:
IVS cells = experiment: IFN-γ ELISPOT with IVS cells (DC pulsed once with HERV-K protein) against MAPs, 9-mer pools or single peptides; format: cell-based, human; details: donor 449731, IVS cells, FIG. 15C
Text: FIGS. 15A-C. ELISPOT was employed to determine the production of IFN-γ in twelve 15-mer small pools. (FIG. 15A) Numbers of spots detected in multiple pools are shown for a breast cancer patient diagnosed with IDC (Acc 30) or a patient diagnosed with teratoma (Acc 32). (FIG. 15B) Numbers of spots detected in multiple pools are shown for a patient diagnosed with left breast minute foci of sugg papillary lesion (967092) or IDC (Acc 31). SP 1-12 represents small peptide pools #1-12. Pool 0 contains no peptides (as control). (FIG. 15C) T cells obtained from PBMC stimulated once with HERV-K-specific pulsed homologous B cells were reactive with individual MAPs, pools of 9-mer peptides, or single 9-mer peptides. NP: no peptide control.
IVS were obtained from two donor pairs stimulated with DC pulsed once with HERV-K protein. After 7 days (1-week stimulation), IVS cells were used for ELISPOT with 15-mer peptides (FIGS. 15A-B) or MAPs including MAP73, MAP75-76, MAP82-93, MAP 92-93, and MAP95-96 or 9 mer peptide pools (#1 to 5, #5 to 10, #1 to 10, #12 to 17, #18 to 22) or single peptides (#3, #18, and #4.11; FIG. 15C). Candidate epitopes (#4 and #11) were further identified using IVS generated from DC obtained from cancer patients stimulated with HERV-K antigen in this study.

[1] = system: T cells from HLA A2+ normal donor; experiment: IFN-γ ELISPOT, T cells stimulated by 9-mer peptide pool-pulsed homologous B cells; format: cell-based, human
Text: FIGS. 12A-B. Identification of HLA-A2 T-cell specific peptides using anti-human IFN-γ ELISPOT with T cells from one HLA A2^+ normal donor. (FIG. 12A) T cells, stimulated by peptide pool-pulsed homologous B cells three (3rd T cells) or four (4th T cells) times were reactive with two pools from a HERV-K HLA A2^+9-mer peptide library (pool #1-11 and pool #12-22). NP is no peptide control. (FIG. 12B) Photographs of actual plates for FIG. 12A.
FIGS. 13A-B. Identification of HLA-A2 T cell specific epitopes using anti-human IFN-γ ELISPOT. T cells obtained from PBMC stimulated by peptide pool-pulsed homologous B cells three (3rd T cells) or four (4th T cells) times, were reactive with individual peptides. (FIG. 13A) Image of ELISPOT. (FIG. 13B) The code of peptides evaluated in ELISPOT assays.
FIGS. 14A-C. Summary of number of ELISPOTs from each individual peptide. Numbers of spots detected (pool 1-11, pool 12-22, and pool 23-33) in ELISPOTS with a single peptide are shown. NP contains no peptide (as control). (FIG. 14A) Summary of number of ELISPOTs from each individual peptide including #1, #2, #3, #5, #6, #7, #8, and #9, and peptide pool #1 to #11. (FIG. 14B) Summary of number of ELISPOTs from each individual peptide including #12, #13, #14, #15, #17, #18, #19, #20, #22 and peptide pool #12 to #22. (FIG. 14C) Summary of number of ELISPOTs from each individual peptide including #23, #24, #25, #26, #27, #28, #30, #31, #32, #33, and peptide pool #23 to #33. 4th T cells indicated the T cells had been stimulated with peptide pool 4 times and 3rd T cells indicated the T cells had been stimulated with peptide pool 3 times.
The inventor used epitope mapping to identify responses to HERV-K peptides in breast cancer patients. They chemically synthesized a HERV-K env nine amino acid (9mer) peptide library (33 HLA A2 restricted peptides) and overlapping 15mer peptide library (144 peptides). Preliminary research has identified two pools from the HERV-K env 9mer peptide library that contain potential CD8+ epitopes, using interferon gamma (IFN-γ) enzyme-linked immunosorbent spot (ELISPOT) assay with T cells from one HLA A2^+ normal donor which was stimulated with the 9mer peptide pool-pulsed homologous dendritic cells (DCs).
HLA-2+ patients were identified by flow cytometry using anti-A2 antibody. Activated B cells were cultured from PBMCs stimulated with irradiated 3T3-CD40L-expressing fibroblasts. Normal donor CD8+ T-cell lines were obtained from PBMCs stimulated with autologous activated B cells pulsed with peptide pools (peptides are in 3 pools: #1-11, #12-22, and #23-33); the stimulation was repeated for 3-4 cycles. HERV-K specific T cells generated from normal donor lines were tested for peptide reactivity using IFN-γ ELISPOT assays (FIGS. 12A-B).

Row | Sequence | HERV-K specific T cell epitope (IFN-γ ELISPOT) (IVS cells) | CD8 T epitope for HLA-A2 donors [1] | IFN-γ ELISPOT spots with individual peptide ([1]; T cell stimulated 3 times with peptide pool #12 to 22) | IFN-γ ELISPOT spots with individual peptide ([1]; T cell stimulated 4 times with peptide pool #12 to 22) | IFN-γ ELISPOT spots with individual peptide ([1]; T cell stimulated 4 times with peptide pool #1 to 11)
1 | IINLILILV [HERVK-18] | HERV-K specific T cell epitopes | may be CD8 T epitopes | numerous spots | numerous spots | –
2 | YMLVVGNIV [HERVK-3] | HERV-K specific T cell epitopes | may be CD8 T epitopes | – | – | numerous spots
